Results from patent US20220228164A1, “ENGINEERED ANTIGEN PRESENTING CELLS” (Neogene Therapeutics B.V., priority 2021, published 2022).

What was measured:
Assay type in all cases: cell-based, human
[1] = tested on: TCR-KO Jurkat T cells expressing the GCN1L1 TCR; test: Peptide electroporation of BCL-6/BCL-xL-CD40L immortalized B cells, co-culture with TCR Jurkat T cells, CD69 (Examples 11, 12); conditions: for presentation of the GCN1L1 antigen after peptide electroporation (CD69+ of live cells): electroporated into BCL-6/BCL-xL-CD40L immortalized B cells
Source text: Immortalized primary human B cells that are electroporated with a polypeptide of a uniform length (25mer) will be efficiently processed and present T cell epitopes encoded within the polypeptide via the MHC class I pathway and activate T cells expressing an MHC class I restricted TCR specific for the T cell epitope encoded within the polypeptide. BCL-6/BCL-xL-CD40L immortalized B cells from a healthy donor were electroporated with short (10mer) (ALLETPSLLL, SEQ ID NO: 5) or long (25mer) ([…], SEQ ID NO: 6) peptides encoding the GCN1L1 mutated peptide or CMV mutated long peptide ([…], SEQ ID NO: 7), using a method known to the skilled artisan. Briefly, for each sample, 0.2e6 B cells were harvested and washed with PBS. After removal of all PBS, the dry pellet was resuspended in electroporation buffer (SF-buffer, Lonza) at a concentration of 25e6 cells per mL. Of this mixture, 20 μL per sample was added to a 96 well tissue-culture-plate that contains the appropriate amount of peptide resulting in the indicated peptide concentration. Cells were transferred to a 16-well electroporation strip (Lonza) and subsequently electroporated using the DN100 program (Lonza Amaxa). Post-electroporation, cells were rested for 10 minutes at 37° C. and transferred to a 96 well round bottom tissue-culture plate in a final volume of 200 μL of Complete B cell Medium (RPMI1640 medium supplemented with 10% (v/v) Fetal Calf Serum (FCS), 1% (v/v) Penicillin/Streptomycin (P/S), 1% (v/v) Sodium Pyruvate, 1% (v/v) Non-essential amino acids, 1% (v/v) Glutamax, 50 nM 2-Mercaptoethanol) and incubated for 0, 2, 4, 5, 6, 10 or 24 hrs at 37° C. The resting period post peptide electroporation allows for exogenous loading of the peptide onto the target cells in a parallel experimental condition. […] After 20 hours, cells were stained with antibodies directed against CD8 and CD69 and specific recognition by TCR td T cells was measured by CD69 upregulation on a flow cytometer. […]

[2] = tested on: Jurkat T cells expressing the class II restricted MAGE-A3 TCR; test: Peptide electroporation of BCL-6/BCL-xL-CD40L immortalized B cells, co-culture with TCR Jurkat T cells, CD69 (Example 12); conditions: 25mer electroporated; MHC class II restricted TCR
[3] = tested on: TCR-KO Jurkat T cells expressing the CMV1 TCR; test: Peptide electroporation of BCL-6/BCL-xL-CD40L immortalized B cells, co-culture with TCR Jurkat T cells, CD69 (Examples 11, 12); conditions: 25mer electroporated; MHC class I restricted TCR
Source text: Immortalized primary human B cells that are electroporated with a polypeptide of a uniform length (25mer) will be efficiently processed and present T cell epitopes encoded within the polypeptide via the MHC class I pathway and activate T cells expressing an MHC class I restricted TCR specific for the T cell epitope encoded within the polypeptide. BCL-6/BCL-xL-CD40L immortalized B cells from a healthy donor were electroporated with short (10mer) (ALLETPSLLL, SEQ ID NO: 5) or long (25mer) ([…], SEQ ID NO: 6) peptides encoding the GCN1L1 mutated peptide or CMV mutated long peptide ([…], SEQ ID NO: 7), using a method known to the skilled artisan. Briefly, for each sample, 0.2e6 B cells were harvested and washed with PBS. After removal of all PBS, the dry pellet was resuspended in electroporation buffer (SF-buffer, Lonza) at a concentration of 25e6 cells per mL. […] After 20 hours, cells were stained with antibodies directed against CD8 and CD69 and specific recognition by TCR td T cells was measured by CD69 upregulation on a flow cytometer.
A CMV epitope was electroporated or loaded onto BCL-6/BCL-xL/CD40L immortalized B cells. T cell activation was measured for various concentrations of peptide after 6, 10 or 24 hours of post-electroporation resting (FIG. 17A) or were loaded with peptide (FIG. 17B) for similar time-points. […]

ALLETPSLLL [short GCN1L1 peptide, short (10mer) peptide encoding the GCN1L1 mutated peptide]
presentation of the GCN1L1 antigen after peptide electroporation (CD69+ of live cells) [1]: efficient presentation

FSWNVKAALLETPSLLLAKVGIALK [long GCN1L1 peptide, long (25mer) peptide encoding the GCN1L1 mutated peptide]
post-electroporation rest with which the peptide elicits a response (% CD69) ([1]; 25mer electroporated, MHC class I restricted TCR): ≥ 2 h
presentation of the GCN1L1 antigen after peptide electroporation (CD69+ of live cells) [1]: efficient presentation

ILGDPKKLLTQHFVQENYLEYRQVP [MAGEA3]
post-electroporation rest with which the peptide elicits a response (% CD69) [2]: ≥ 2 h

WQAGILARNLVPMVATVQGQNLKYQ [long CMV1 peptide, CMV long (25mer) peptide]
post-electroporation rest with which the peptide elicits a response (% CD69) [3]: ≥ 2 h
